Measured values reported in ChEMBL document CHEMBL3822408, “Synthesis and antimicrobial evaluation of novel ethyl 2-(2-(4-substituted)acetamido)-4-subtituted-thiazole-5-carboxylate derivatives” (2016).
In brackets after ≈: the same amount, converted by molar mass.

Assays:
Assay type in all cases: functional
Aspergillus flavus = assay: Antifungal activity against Aspergillus flavus by broth dilution method
Bacillus subtilis = assay: Antibacterial activity against Bacillus subtilis NCIM 2063 by broth dilution method
Aspergillus niger = assay: Antifungal activity against Aspergillus niger by broth dilution method
Escherichia coli = assay: Antibacterial activity against Escherichia coli NCIM 2256 by broth dilution method
Candida albicans = assay: Antifungal activity against Candida albicans by broth dilution method
Staphylococcus aureus = assay: Antibacterial activity against Staphylococcus aureus NCIM 2901 by broth dilution method

CCOC(=O)c1sc(NC(=O)CN2CCC(Cc3ccccc3)CC2)nc1CC
MIC (Aspergillus flavus): 100 µg/mL (≈ 241 µM) | MIC (Bacillus subtilis): 40 µg/mL (≈ 96.3 µM) | MIC (Aspergillus niger): 100 µg/mL (≈ 241 µM) | MIC (Escherichia coli): 100 µg/mL (≈ 241 µM) | MIC (Candida albicans): 75 µg/mL (≈ 180 µM) | MIC (Staphylococcus aureus): 100 µg/mL (≈ 241 µM)

Clc1ccc(COC(Cn2ccnc2)c2ccc(Cl)cc2Cl)c(Cl)c1 (stereo unspecified) [MICONAZOLE]
MIC (Aspergillus flavus): 12.5 µg/mL (≈ 30 µM) | MIC (Aspergillus niger): 12.5 µg/mL (≈ 30 µM) | MIC (Candida albicans): 12.5 µg/mL (≈ 30 µM)

CCOC(=O)c1cnc(NC(=O)CN2CCC(Cc3ccccc3)CC2)s1
MIC (Aspergillus flavus): 12.5 µg/mL (≈ 32.3 µM) | MIC (Bacillus subtilis): 29 µg/mL (≈ 74.8 µM) | MIC (Aspergillus niger): 12.5 µg/mL (≈ 32.3 µM) | MIC (Escherichia coli): 29 µg/mL (≈ 74.8 µM) | MIC (Candida albicans): 25 µg/mL (≈ 64.5 µM) | MIC (Staphylococcus aureus): 28 µg/mL (≈ 72.3 µM)

CCOC(=O)c1sc(NC(=O)CN2CCC(c3ccccc3)CC2)nc1C
MIC (Aspergillus flavus): 12.5 µg/mL (≈ 32.3 µM) | MIC (Bacillus subtilis): 28 µg/mL (≈ 72.3 µM) | MIC (Aspergillus niger): 25 µg/mL (≈ 64.5 µM) | MIC (Escherichia coli): 29 µg/mL (≈ 74.8 µM) | MIC (Candida albicans): 25 µg/mL (≈ 64.5 µM) | MIC (Staphylococcus aureus): 30 µg/mL (≈ 77.4 µM)

COC(=O)c1sc(NC(=O)CN2CCC(Cc3ccccc3)CC2)nc1C1CC1
MIC (Aspergillus flavus): 12.5 µg/mL (≈ 30.2 µM) | MIC (Bacillus subtilis): 29 µg/mL (≈ 70.1 µM) | MIC (Aspergillus niger): 12.5 µg/mL (≈ 30.2 µM) | MIC (Escherichia coli): 29 µg/mL (≈ 70.1 µM) | MIC (Candida albicans): 25 µg/mL (≈ 60.5 µM) | MIC (Staphylococcus aureus): 28 µg/mL (≈ 67.7 µM)

OC(Cn1cncn1)(Cn1cncn1)c1ccc(F)cc1F [FLUCONAZOLE]
MIC (Aspergillus flavus): 25 µg/mL (≈ 81.6 µM) | MIC (Aspergillus niger): 25 µg/mL (≈ 81.6 µM) | MIC (Candida albicans): 40 µg/mL (≈ 131 µM)

COC(=O)c1cnc(NC(=O)CN2CCC(Cc3ccccc3)CC2)s1
MIC (Aspergillus flavus): 50 µg/mL (≈ 134 µM) | MIC (Bacillus subtilis): 35 µg/mL (≈ 93.7 µM) | MIC (Aspergillus niger): 50 µg/mL (≈ 134 µM) | MIC (Escherichia coli): 60 µg/mL (≈ 161 µM) | MIC (Candida albicans): 100 µg/mL (≈ 268 µM) | MIC (Staphylococcus aureus): 50 µg/mL (≈ 134 µM)

CCOC(=O)c1sc(NC(=O)CN2CCC(Cc3ccccc3)CC2)nc1-c1ccccc1
MIC (Aspergillus flavus): 25 µg/mL (≈ 53.9 µM) | MIC (Bacillus subtilis): 25 µg/mL (≈ 53.9 µM) | MIC (Aspergillus niger): 25 µg/mL (≈ 53.9 µM) | MIC (Escherichia coli): 29 µg/mL (≈ 62.6 µM) | MIC (Candida albicans): 50 µg/mL (≈ 108 µM) | MIC (Staphylococcus aureus): 28 µg/mL (≈ 60.4 µM)

CCOC(=O)c1sc(NC(=O)CN2CCC(Cc3ccccc3)CC2)nc1C
MIC (Aspergillus flavus): 50 µg/mL (≈ 125 µM) | MIC (Bacillus subtilis): 35 µg/mL (≈ 87.2 µM) | MIC (Aspergillus niger): 50 µg/mL (≈ 125 µM) | MIC (Escherichia coli): 50 µg/mL (≈ 125 µM) | MIC (Candida albicans): 75 µg/mL (≈ 187 µM) | MIC (Staphylococcus aureus): 70 µg/mL (≈ 174 µM)

C[C@H]1COc2c(N3CCN(C)CC3)c(F)cc3c(=O)c(C(=O)O)cn1c23.C[C@H]1COc2c(N3CCN(C)CC3)c(F)cc3c(=O)c(C(=O)O)cn1c23.O [LEVOFLOXACIN]
MIC (Bacillus subtilis): 29 µg/mL | MIC (Escherichia coli): 29 µg/mL | MIC (Staphylococcus aureus): 28 µg/mL

Cc1nc(NC(=O)CN2CCC(Cc3ccccc3)CC2)sc1C
MIC (Aspergillus flavus): 12.5 µg/mL (≈ 36.4 µM) | MIC (Bacillus subtilis): 28 µg/mL (≈ 81.5 µM) | MIC (Aspergillus niger): 12.5 µg/mL (≈ 36.4 µM) | MIC (Escherichia coli): 29 µg/mL (≈ 84.4 µM) | MIC (Candida albicans): 25 µg/mL (≈ 72.8 µM) | MIC (Staphylococcus aureus): 30 µg/mL (≈ 87.3 µM)

CCOC(=O)c1sc(NC(=O)CN2CCCCC2)nc1C
MIC (Aspergillus flavus): 100 µg/mL (≈ 321 µM) | MIC (Bacillus subtilis): 45 µg/mL (≈ 145 µM) | MIC (Aspergillus niger): 100 µg/mL (≈ 321 µM) | MIC (Escherichia coli): 60 µg/mL (≈ 193 µM) | MIC (Candida albicans): 75 µg/mL (≈ 241 µM) | MIC (Staphylococcus aureus): 100 µg/mL (≈ 321 µM)

CC(=O)c1sc(NC(=O)CN2CCC(Cc3ccccc3)CC2)nc1C
MIC (Aspergillus flavus): 50 µg/mL (≈ 135 µM) | MIC (Bacillus subtilis): 35 µg/mL (≈ 94.2 µM) | MIC (Aspergillus niger): 50 µg/mL (≈ 135 µM) | MIC (Escherichia coli): 60 µg/mL (≈ 162 µM) | MIC (Candida albicans): 100 µg/mL (≈ 269 µM) | MIC (Staphylococcus aureus): 50 µg/mL (≈ 135 µM)

CCOC(=O)c1sc(NC(=O)CN2CCC(C)CC2)nc1C
MIC (Aspergillus flavus): 50 µg/mL (≈ 154 µM) | MIC (Bacillus subtilis): 35 µg/mL (≈ 108 µM) | MIC (Aspergillus niger): 50 µg/mL (≈ 154 µM) | MIC (Escherichia coli): 50 µg/mL (≈ 154 µM) | MIC (Candida albicans): 75 µg/mL (≈ 230 µM) | MIC (Staphylococcus aureus): 70 µg/mL (≈ 215 µM)

Cc1csc(NC(=O)CN2CCC(Cc3ccccc3)CC2)n1
MIC (Aspergillus flavus): 50 µg/mL (≈ 152 µM) | MIC (Bacillus subtilis): 35 µg/mL (≈ 106 µM) | MIC (Aspergillus niger): 50 µg/mL (≈ 152 µM) | MIC (Escherichia coli): 50 µg/mL (≈ 152 µM) | MIC (Candida albicans): 75 µg/mL (≈ 228 µM) | MIC (Staphylococcus aureus): 70 µg/mL (≈ 212 µM)
